ChEMBL document CHEMBL1201862, “PubChem BioAssay data set” (2004)
The source made the active and inactive calls.

What was measured:
[1] = biological target: T1, Heat shock factor protein 1 (Mus musculus, UniProt P38532); test: inhibition of MG132-induced HSE-luciferase signal, confirmation, cell-based, NIH3T3, luminescence, dose retest (AID 2382); assay type: functional;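 note: NIH3T3 fibroblasts with HSF1-driven luciferase reporter stressed by proteasome inhibitor MG132; luminescence from HSF1-driven luciferase expression after 8 hours of MG132 stress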
T1 sequence (P38532 whole entry): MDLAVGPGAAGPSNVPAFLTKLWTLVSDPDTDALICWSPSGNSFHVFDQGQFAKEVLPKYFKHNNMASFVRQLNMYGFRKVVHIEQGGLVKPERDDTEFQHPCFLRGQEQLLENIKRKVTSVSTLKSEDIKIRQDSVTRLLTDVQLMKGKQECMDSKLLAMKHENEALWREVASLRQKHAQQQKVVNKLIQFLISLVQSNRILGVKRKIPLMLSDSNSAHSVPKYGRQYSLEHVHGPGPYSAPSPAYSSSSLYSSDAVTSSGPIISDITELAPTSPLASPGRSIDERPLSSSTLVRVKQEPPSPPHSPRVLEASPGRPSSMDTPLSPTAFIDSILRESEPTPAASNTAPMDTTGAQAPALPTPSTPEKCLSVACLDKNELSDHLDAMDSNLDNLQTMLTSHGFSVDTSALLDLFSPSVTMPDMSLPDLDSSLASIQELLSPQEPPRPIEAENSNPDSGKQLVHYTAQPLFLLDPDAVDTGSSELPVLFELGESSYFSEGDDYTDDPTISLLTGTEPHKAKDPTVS

[2] = inhibitors of SNCA 5'UTR-driven reporter translation, confirmation, H4 neuroglioma cells, luminescence (AID 1988); assay type: functional, cell-based
[3] = growth suppression of beta-catenin-knockout colon cells, dose response, cell-based, HCT116, human colon tumor (AID 1045); assay type: functional;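 note: HCT116 colon tumor cells with beta catenin knocked out; cells exposed to compound for 60 hours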
cells [4] = assay type: functional
HeLa = test: HeLa cell cytotoxicity, dose response, cytotoxicity control for MITF activator project, CellTiter-Glo luminescence, cherry-pick samples (AID 540259); assay type: functional, cell-based; conditions: Homo sapiens
Protein skinhead-1 = biological target: T2, Protein skinhead-1 (Caenorhabditis elegans, UniProt P34707); assay type: functional
T2 sequence (P34707 whole entry): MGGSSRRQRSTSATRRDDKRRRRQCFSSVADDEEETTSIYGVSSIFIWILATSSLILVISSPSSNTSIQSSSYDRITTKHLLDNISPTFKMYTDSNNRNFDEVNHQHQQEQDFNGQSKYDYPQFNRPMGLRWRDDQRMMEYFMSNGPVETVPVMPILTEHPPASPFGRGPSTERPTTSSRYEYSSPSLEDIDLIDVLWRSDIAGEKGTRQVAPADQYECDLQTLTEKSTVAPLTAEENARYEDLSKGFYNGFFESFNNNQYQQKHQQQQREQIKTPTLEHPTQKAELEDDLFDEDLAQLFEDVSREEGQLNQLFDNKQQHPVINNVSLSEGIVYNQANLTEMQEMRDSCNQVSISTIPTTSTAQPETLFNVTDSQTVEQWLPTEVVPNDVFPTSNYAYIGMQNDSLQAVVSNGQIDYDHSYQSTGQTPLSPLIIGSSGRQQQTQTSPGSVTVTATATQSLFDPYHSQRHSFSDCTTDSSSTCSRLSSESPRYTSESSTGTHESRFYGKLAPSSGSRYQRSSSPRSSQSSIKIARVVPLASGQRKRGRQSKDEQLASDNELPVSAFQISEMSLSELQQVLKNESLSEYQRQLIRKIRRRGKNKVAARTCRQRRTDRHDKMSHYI

SUMO-activating enzyme [5] = biological target: T3, SUMO-activating enzyme (Homo sapiens, UniProt Q9UBT2); test: inhibitors of in vitro SUMOylation cascade, primary screen, biochemical, HTRF, uHTS (AID 2006); assay type: protein-complex assay
SUMO-activating enzyme [6] = biological target: T3, SUMO-activating enzyme; test: SUMOylation inhibitor hit validation, confirmation, SUMOylation inhibitor project, biochemical, AlphaScreen (AID 2018); assay type: functional
[7] = cytotoxicity toward NIH3T3 fibroblasts, dose response, counter-screen, cell-based, ATP luminescence, mouse fibroblasts (AID 2010); assay type: functional;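 note: cells exposed to compound for about 90 hours before reading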
HEK293 [8] = test: SAR Analysis of small molecule inhibitors of T-cell specific antigen receptor-induced NF-kB activation in a HEK-293T cell line using a luminescence assay - Set 2. [Related pubchem assays (depositor defined):AID435003, AID435012, AID489026]; assay type: functional, cell-based; conditions: Homo sapiens
[9] = inhibitors of intracellular T. cruzi replication, confirmation, NIH3T3 host cells, beta-gal luminescence (AID 2044); assay type: functional, cell-based;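 note: intracellular parasites grown in NIH/3T3 mouse fibroblasts as host cells; luminescent beta-galactosidase reporter signal from transgenic T. cruzi replicating inside host cells; inhibitors lower the luminescence signal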
HEK293 [10] = test: cytotoxicity in HEK293T NF-kB-Luc cells, SAR follow-up, cytotoxicity control for NF-kB activator project, cell-based, resazurin fluorescence (AID 493251); assay type: functional; conditions: Homo sapiens
BJ = test: cytotoxicity toward BJ-TERT-LT-ST fibroblasts, dose response, cell-based, RAS-independent, luminescence (AID 1935); assay type: functional; conditions: Homo sapiens;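 note: BJ fibroblasts immortalized with TERT plus LT and ST oncogenes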
[11] = Counterscreen for AddAB inhibitors: absorbance-based bacterial cell-based high throughput dose response assay for inhibitors of bacterial viability. [Related pubchem assays (depositor defined):AID435030, AID449728, AID449731, AID488942, AID488955, AID488956]; assay type: functional
[12] = cytotoxicity in HEK-293T cells, dose response, cytotoxicity control for TCR NF-kB inhibitor project, luminescence, T-cell screen hits (AID 489026); assay type: functional, cell-based;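 note: cells exposed to compound about 14 hours before the viability readout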
cells [13] = assay type: functional, cell-based

T3 sequence (Q9UBE0 whole entry): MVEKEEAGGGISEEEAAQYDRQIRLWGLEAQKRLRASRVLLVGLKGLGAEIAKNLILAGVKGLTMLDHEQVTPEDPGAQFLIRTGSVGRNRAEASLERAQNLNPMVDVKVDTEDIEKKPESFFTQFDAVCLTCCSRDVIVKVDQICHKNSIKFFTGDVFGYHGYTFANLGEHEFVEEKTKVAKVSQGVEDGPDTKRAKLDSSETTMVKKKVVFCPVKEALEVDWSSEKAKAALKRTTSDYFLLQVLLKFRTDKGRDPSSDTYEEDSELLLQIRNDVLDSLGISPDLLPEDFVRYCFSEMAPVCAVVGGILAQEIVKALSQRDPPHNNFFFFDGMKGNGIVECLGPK
T3 sequence (Q9UBT2 whole entry): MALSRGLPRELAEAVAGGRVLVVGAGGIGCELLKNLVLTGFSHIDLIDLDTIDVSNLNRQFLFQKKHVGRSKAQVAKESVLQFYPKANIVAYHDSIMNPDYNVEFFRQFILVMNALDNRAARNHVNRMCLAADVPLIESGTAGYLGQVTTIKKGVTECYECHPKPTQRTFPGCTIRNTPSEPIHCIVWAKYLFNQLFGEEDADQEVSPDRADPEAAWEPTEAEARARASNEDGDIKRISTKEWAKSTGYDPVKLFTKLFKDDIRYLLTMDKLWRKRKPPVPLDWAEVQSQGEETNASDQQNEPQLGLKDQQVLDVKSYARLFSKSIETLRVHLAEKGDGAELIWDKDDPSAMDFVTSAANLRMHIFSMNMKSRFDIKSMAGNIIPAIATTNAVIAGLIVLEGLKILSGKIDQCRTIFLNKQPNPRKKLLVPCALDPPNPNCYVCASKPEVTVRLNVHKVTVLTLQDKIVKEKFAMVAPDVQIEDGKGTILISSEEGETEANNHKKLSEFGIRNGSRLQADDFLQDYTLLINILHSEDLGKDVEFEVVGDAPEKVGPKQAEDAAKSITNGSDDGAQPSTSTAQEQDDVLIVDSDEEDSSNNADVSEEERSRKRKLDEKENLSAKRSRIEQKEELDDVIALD

SMILES: CCOC(=O)c1c(C)[nH]c2c1-c1ccccc1C(=O)C2=O
- EC50 [1]: 1.57 µM (active)
- EC50 [2]: 0.254 µM (active)
- EC50 [3]: 0.403 µM (active)

SMILES: CCOC(=O)C1=C(c2ccccc2)N=C(N)NC1c1ccc(OCc2ccc(Cl)cc2)c(OC)c1 (stereo unspecified)
- IC50 (cells [4]): 9.22 µM (active)

SMILES: COc1ccc2c(c1)CCC(/C=N/c1ccc3c(c1)OCO3)=C2O
- AC50 (HeLa): 48.4 µM (active)

SMILES: CCOC(=O)c1c(C)oc2c1c(/C=N/CCC(=O)O)c(O)c1ccccc12
- IC50 (Protein skinhead-1): > 100 µM (inactive)
- IC50 (SUMO-activating enzyme [5]): 28.8 µM (active)
- IC50 (SUMO-activating enzyme [6]): 3.71 µM (active)

SMILES: CC(=O)NC(c1ccc2ccccc2c1)c1ccc2cccnc2c1O (stereo unspecified)
- EC50 [7]: 0.589 µM (active)
- IC50 (HEK293 [8]): 1.88 µM (active)
- EC50 [9]: 0.306 µM (active)
- IC50 (HEK293 [10]): 21.5 µM (inactive)
- EC50 (BJ): 6.07 µM (inconclusive)
- IC50 [11]: > 118 µM (inactive)
- IC50 [12]: > 80 µM (inactive)
- EC50 (cells [13]): > 350 µM (not active)
